Patent publication US20150250746A1, “ACAMPROSATE FORMULATIONS, METHODS OF USING THE SAME, AND COMBINATIONS COMPRISING THE SAME” (Synchroneuron Inc., priority 2013, published 2015)

Columns and labels:
[1] = test system: tardive dyskinesia; test: Clinical cases: acamprosate in patients with tardive dyskinesia; format: in vivo, human; conditions: for relief of TD involuntary movements: Case 2
Description: Case 1: A person had long-standing tardive dyskinesia induced by treatment of schizoaffective disorder with a variety of neuroleptics and mood stabilizers. Their TD was characterized by side to side movements of the jaw, grimacing movements, rocking of the trunk, and continual involuntary kicking, leg-crossing, and twisting movements of their legs and feet. At the time they presented for treatment of their TD they were treated for their mental illness with lamotrigine and quetiapine, a second-generation neuroleptic.
To test the hypothesis that the efficacy of acamprosate was related to adequate time above a threshold blood level the patient was asked to try taking 1332 mg of acamprosate once a day.
CASE 2: A person had been treated with acamprosate for several years for TD due to exposure to several neuroleptics for schizoaffective disorder. They were currently treated with lamotrigine and quetiapine for their mental illness, and was taking acamprosate 1032 mg+999 mg+1032 mg on a three times daily basis. […] To test the therapeutic threshold hypothesis the patient was asked to try 1032 mg of acamprosate once a day in the morning. […] They noted that when they got relief of their involuntary movements they also had less anxiety and agitation than when the movements were present.

[2] = test system: cultured rat hippocampus neurons; test: Organotypic hippocampal slice model of glutamate neurotoxicity; format: cell-based; conditions: 200 μM calcium acamprosate 8 hr or 5 days, removed from medium for up to eight hours
Description: The study is designed to test whether pre-treatment with acamprosate can have long-term neuronal protective effects against glutamate neurotoxicity. The study uses an in vitro organotypic hippocampal slice model. The study assesses whether less than 24 hours per day of exposure to a sufficient level of acamprosate can offer 24-hour therapeutic actions in neuropsychiatric disorders. […] This supports, among other things, the therapeutic use of acamprosate in neuropsychiatric disorders because the latter are related to the effect of acamprosate to decrease glutamate effects at NMDA and metabotropic glutamate receptors.
Hippocampal slices derived from 8-day-old Sprague Dawley rats are plated and subsequently exposed to a relatively acute (8 hour) or more chronic (5 day) acamprosate treatment. The slices are then removed from the medium containing acamprosate and returned to control medium for either 1 or 8 hours. […] The slices are then placed in normal medium with propidium iodide for 24 hr and assessed for neurotoxicity/neuroprotection as described below. […]
Neurotoxicity/neuroprotection assessment: For the final medium change, the plates are moved into normal media containing propidium iodide (PI) added to each well for 24 hours. PI only penetrates cell membranes of damaged or potentially dying cells, binding to DNA to produce a bright, intensified red fluorescence at 630 nm. […]

[3] = test system: abnormal chewing movements; test: Rat model of tardive dyskinesia (haloperidol-induced abnormal chewing movements); format: in vivo; conditions: steadily-maintained blood level; haloperidol-exposed rats
Description: Acamprosate is tested using a rat model of tardive dyskinesia looking at abnormal chewing movements produced in rats by exposing them for several weeks to haloperidol, a potent first-generation neuroleptic. […] Rats then are dosed with acamprosate in a way that matches the therapeutic blood level for no more than 12 hours out of 24, to confirm that this reduces the involuntary movements.

[4] = test system: abnormal movements; test: Transgenic mouse models with movement disorders and hyperglutamatergic states; format: in vivo; conditions: steadily-maintained blood level; Per2(Brdm1) deletion or ENT1(-/-) mice
[5] = cited from earlier work
[6] = in vivo; cited from earlier work
[7] = Gastric retention of swellable acamprosate tablet in dog model, induction of fed mode with alpha-lipoic acid; format: in vivo; conditions: of 800 mg swellable acamprosate tablet after 125 mg alpha-lipoic acid given 15 minutes before; four beagle dogs

SMILES	relief of TD symptoms ([1]; Case 1, 666 mg three times a day)	relief of TD symptoms ([1]; Case 1, 999 mg three times a day)	anxiety and agitation ([1]; Case 1, 999 mg three times a day with perphenazine)	relief of TD symptoms ([1]; Case 1, 1332 mg once a day)	side effects ([1]; Case 1, 1332 mg once a day)	relief of TD involuntary movements ([1]; 999 mg three times a day)	relief of TD involuntary movements ([1]; 1032 mg morning plus second dose of 1032 mg 8 to 10 hours later)	relief of TD involuntary movements ([1]; 1032 mg once a day in the morning)	relief of TD involuntary movements ([1]; 1032 mg+999 mg+1032 mg three times daily)	protection of neurons from challenge with a toxic level of a glutamate agonist [2]	abnormal chewing movements [3]	abnormal movements [4]	solubility [5]	solubility in gastric juice [5]	decrease of bioavailability by food [6]	Average gastric retention time [7] [h]	Maximum gastric retention time [7] [h]	Minimum gastric retention time [7] [h]
CC(=O)NCCCS(=O)(=O)O [acamprosate, calcium N-acetylhomotaurinate]	partial relief of symptoms	complete relief of their TD	relief of anxiety and agitation	free of involuntary movements of TD	significant GI side effects of diarrhea and abdominal cramps	did not give full relief	complete relief of symptoms	free of movements in the morning and early afternoon but movements returned in the evening	completely relieved their involuntary movements of TD	persistent effect	reduce or eliminate the abnormal movements	reduce or eliminate the abnormal movements	high solubility	immediately and completely soluble	approximately 30%			
O=C(O)CCCCC1CCSS1 (stereo not drawn) [alpha-lipoic acid]																2.8	5	1.5
